# Test results published in PubChem BioAssay AID328 (DTP/NCI, 2004).
# Where “and” joins values, the source holds several entries; their conditions need not be identical. Equal entries are not always repeated. Toxic doses and inconclusive results are not listed. Starred links: 1 amine or outer side, 2 acyl side, 3 side chain; linkers in the order of their positions; H or OH if unused. Positions of bridges follow the written chain, without caps; N, C: chain ends. Non-standard residues stand in square brackets, D forms with d. Residues, ends and D or L forms follow the SMILES beside them. Chains are numbered I, II in the order given. ξ: configuration not given here. Actinocin(9to1) = Cc1c2oc3c(C)ccc(C(=O)[*:1])c3nc-2c(C(=O)[*:2])c(N)c1=O; ξPro(4ξ-Me) = CC1CNC(C(=O)O)C1; NMeV = CN[CH](C(=O)O)C(C)C; Sar = CNCC(=O)O
# Tested on: BDF1 mice, P388 leukemia ip, median survival T/C
# Assay: NCI In Vivo Anticancer Drug Screen. Data for tumor model P388 Leukemia (intraperitoneal) in B6D2F1 (BDF1) mice
# Conditions: endpoint: median survival time, higher = longer survival
# Outline: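 Mice carrying the transplantable tumour receive compound or vehicle. Survival is followed in each arm, and the treated measure is divided by the vehicle measure.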
# [1] = dose: 25.0 mg/kg/injection, schedule: Q04DX003 (ip), vehicle: saline with Tween-80
# [2] = dose: 50.0 mg/kg/injection, schedule: Q04DX003 (ip), vehicle: saline with Tween-80
# [3] = dose: 100.0 mg/kg/injection, schedule: Q04DX003 (ip), vehicle: saline with Tween-80
# [4] = dose: 25.0 mg/kg/injection, schedule: Q01DX009 (ip), vehicle: saline with Tween-80
# [5] = dose: 50.0 mg/kg/injection, schedule: Q01DX009 (ip), vehicle: saline with Tween-80
# [6] = dose: 100.0 mg/kg/injection, schedule: Q01DX009 (ip), vehicle: saline with Tween-80
# [7] = dose: 200.0 mg/kg/injection, schedule: Q01DX009 (ip), vehicle: saline with Tween-80
compound,measurement,setting,value
CCCCCCCCCCCCNCCCCCCCCCCCC,T/C,"dose: 1.0 mg/kg/injection, schedule: Q01DX010 (ip), vehicle: other",100 % of control
same,T/C,"dose: 2.0 mg/kg/injection, schedule: Q01DX010 (ip), vehicle: other",100 % of control
same,T/C,"dose: 3.0 mg/kg/injection, schedule: Q01DX010 (ip), vehicle: other",90 % of control
same,T/C,"dose: 3.12 mg/kg/injection, schedule: Q01DX009 (ip), vehicle: Klucel (hydroxypropylcellulose) (HPC)",100 % of control
same,T/C,"dose: 3.25 mg/kg/injection, schedule: Q01DX001 (ip), vehicle: Klucel (hydroxypropylcellulose) (HPC)",100 % of control
same,T/C,"dose: 4.0 mg/kg/injection, schedule: Q01DX010 (ip), vehicle: other",100 % of control
same,T/C,"dose: 6.25 mg/kg/injection, schedule: Q01DX009 (ip), vehicle: Klucel (hydroxypropylcellulose) (HPC)",90 % of control
same,T/C,"dose: 6.5 mg/kg/injection, schedule: Q01DX001 (ip), vehicle: Klucel (hydroxypropylcellulose) (HPC)",100 % of control
same,T/C,"dose: 8.0 mg/kg/injection, schedule: Q01DX010 (ip), vehicle: water",100 % of control
same,T/C,"dose: 12.5 mg/kg/injection, schedule: Q01DX009 (ip), vehicle: Klucel (hydroxypropylcellulose) (HPC)",95 % of control
same,T/C,"dose: 13.0 mg/kg/injection, schedule: Q01DX001 (ip), vehicle: Klucel (hydroxypropylcellulose) (HPC)",100 % of control
same,T/C,"dose: 18.0 mg/kg/injection, schedule: Q01DX009 (ip), vehicle: Klucel (hydroxypropylcellulose) (HPC)",95 % of control
same,T/C,"dose: 60.0 mg/kg/injection, schedule: Q01DX001 (ip), vehicle: Klucel (hydroxypropylcellulose) (HPC)",100 % of control
same,T/C,"dose: 90.0 mg/kg/injection, schedule: Q01DX001 (ip), vehicle: Klucel (hydroxypropylcellulose) (HPC)",100 % of control
same,T/C,"dose: 130.0 mg/kg/injection, schedule: Q01DX001 (ip), vehicle: Klucel (hydroxypropylcellulose) (HPC)",105 % of control
same,T/C,"dose: 135.0 mg/kg/injection, schedule: Q01DX001 (ip), vehicle: Klucel (hydroxypropylcellulose) (HPC)",104 % of control
same,T/C,"dose: 200.0 mg/kg/injection, schedule: Q01DX001 (ip), vehicle: Klucel (hydroxypropylcellulose) (HPC)",115 % of control
same,T/C,"dose: 300.0 mg/kg/injection, schedule: Q01DX001 (ip), vehicle: Klucel (hydroxypropylcellulose) (HPC)",110 % of control
same,T/C,"dose: 305.0 mg/kg/injection, schedule: Q01DX001 (ip), vehicle: Klucel (hydroxypropylcellulose) (HPC)",109 % of control
Clc1ccc(OCc2sc3ccc(Cl)cc3c2CN2CCCCC2)cc1,T/C,[1],100 % of control
same,T/C,[2],90 % of control
same,T/C,[3],90 % of control
CC(=O)[C@H]1CC[C@H]2[C@@H]3CCC4=CC(=O)CC[C@]4(C)[C@H]3CC[C@]12C,T/C,"dose: 100.0 mg/kg/injection, schedule: Q01DX009 (sc), vehicle: steriod suspending solution",104 % of control
same,T/C,"dose: 100.0 mg/kg/injection, schedule: Q04DX003 (sc), vehicle: steriod suspending solution",100 % of control
same,T/C,"dose: 200.0 mg/kg/injection, schedule: Q01DX009 (sc), vehicle: steriod suspending solution",87 % of control
same,T/C,"dose: 200.0 mg/kg/injection, schedule: Q04DX003 (sc), vehicle: steriod suspending solution",105 % of control
same,T/C,"dose: 400.0 mg/kg/injection, schedule: Q01DX009 (sc), vehicle: steriod suspending solution",87 % of control
same,T/C,"dose: 400.0 mg/kg/injection, schedule: Q04DX003 (sc), vehicle: steriod suspending solution",110 % of control
ClC(Cl)C(Cl)(Cl)C(Cl)(Cl)Cl,T/C,"dose: 50.0 mg/kg/injection, schedule: Q01DX009 (ip), vehicle: Klucel (hydroxypropylcellulose) (HPC)",91 % of control
same,T/C,"dose: 50.0 mg/kg/injection, schedule: Q04DX003 (ip), vehicle: Klucel (hydroxypropylcellulose) (HPC)",104 % of control
same,T/C,"dose: 100.0 mg/kg/injection, schedule: Q01DX009 (ip), vehicle: Klucel (hydroxypropylcellulose) (HPC)",95 % of control
same,T/C,"dose: 100.0 mg/kg/injection, schedule: Q04DX003 (ip), vehicle: Klucel (hydroxypropylcellulose) (HPC)",109 % of control
same,T/C,"dose: 200.0 mg/kg/injection, schedule: Q01DX009 (ip), vehicle: Klucel (hydroxypropylcellulose) (HPC)",100 % of control
same,T/C,"dose: 200.0 mg/kg/injection, schedule: Q04DX003 (ip), vehicle: Klucel (hydroxypropylcellulose) (HPC)",109 % of control
CCN(CC)CCNc1ccc(CO)c2sc3ccc(O)cc3c(=O)c12,T/C,"dose: 9.88 mg/kg/injection, schedule: Q04DX002 (ip), vehicle: saline with Tween-80",163 % of control
same,T/C,"dose: 18.75 mg/kg/injection, schedule: Q04DX002 (ip), vehicle: saline with Tween-80",207 % of control
same,T/C,"dose: 37.5 mg/kg/injection, schedule: Q04DX002 (ip), vehicle: saline with Tween-80",179 % of control
same,T/C,"dose: 75.0 mg/kg/injection, schedule: Q04DX002 (ip), vehicle: saline with Tween-80",207 % of control
CC(C)=NNS(=O)(=O)c1ccccc1,T/C,[2],95 % of control
same,T/C,[3],90 % of control
same,T/C,"dose: 200.0 mg/kg/injection, schedule: Q04DX003 (ip), vehicle: saline with Tween-80",95 % of control
COC1C(CNC23CC4CC(CC(C4)C2)C3)OC2OC(C)(C)OC21 (stereo unspecified),T/C,"dose: 25.0 mg/kg/injection, schedule: Q01DX005 (ip), vehicle: saline with Tween-80",101 % of control
same,T/C,"dose: 50.0 mg/kg/injection, schedule: Q01DX005 (ip), vehicle: saline with Tween-80",100 % of control and 113 % of control
same,T/C,"dose: 100.0 mg/kg/injection, schedule: Q01DX005 (ip), vehicle: saline with Tween-80",99 % of control and 121 % of control
same,T/C,"dose: 200.0 mg/kg/injection, schedule: Q01DX005 (ip), vehicle: saline with Tween-80",105 % of control and 115 % of control
N#Cc1ccc(C[n+]2cccc3c([N+](=O)[O-])cccc32)cc1,T/C,"dose: 12.5 mg/kg/injection, schedule: Q01DX009 (ip), vehicle: saline with Tween-80",103 % of control
same,T/C,[4],108 % of control
same,T/C,[5],118 % of control
FC(F)(F)c1ccc2c(c1)N(CCCN1CCN(CCN3CCOCC3)CC1)c1ccccc1S2,T/C,"dose: 12.5 mg/kg/injection, schedule: Q04DX003 (ip), vehicle: saline",99 % of control and 100 % of control
same,T/C,"dose: 25.0 mg/kg/injection, schedule: Q04DX003 (ip), vehicle: saline",86 % of control and 99 % of control
same,T/C,"dose: 50.0 mg/kg/injection, schedule: Q04DX003 (ip), vehicle: saline",104 % of control and 112 % of control
O=C1/C(=C\c2ccc(Cl)cc2Cl)SC(=S)N1Cc1ccco1,T/C,[5],97 % of control
same,T/C,[6],91 % of control
same,T/C,[7],88 % of control
CC1(C)N=C(N)N=C(N)N1c1ccc(OCCCNC(=O)Nc2cccc(S(=O)(=O)F)c2)c(Cl)c1,T/C,[4],177 % of control
same,T/C,[1],150 % of control
same,T/C,[5],200 % of control
same,T/C,[2],150 % of control
same,T/C,"dose: 66.0 mg/kg/injection, schedule: Q01DX009 (ip), vehicle: saline with Tween-80",177 % of control
same,T/C,[6],86 % of control and 213 % of control
"Cc1c2oc3c(C)ccc(C(=O)NC4C(=O)NC(C(C)C)C(=O)N5CC(C)CC5C(=O)N(C)CC(=O)N(C)C(C(C)C)C(=O)OC4C)c3nc-2c(C(=O)NC2C(=O)NC(C(C)C)C(=O)N3CC(C)CC3C(=O)N(C)CC(=O)N(C)C(C(C)C)C(=O)OC2C)c(N)c1=O (stereo unspecified) (I: TV[ξPro(4ξ-Me)][Sar][NMeV] / II: TV[ξPro(4ξ-Me)][Sar][NMeV]; ester I:1-I:C, II:1-II:C; linker I:N-II:N via Actinocin(9to1); configuration not given here)",T/C,"dose: 1.3 mg/kg/injection, schedule: Q01DX009 (ip), vehicle: saline + alcohol",204 % of control
same,T/C,"dose: 2.16 mg/kg/injection, schedule: Q01DX009 (ip), vehicle: saline + alcohol",228 % of control
same,T/C,"dose: 3.24 mg/kg/injection, schedule: Q04DX003 (ip), vehicle: saline + alcohol",190 % of control and 161 % of control and 193 % of control
same,T/C,"dose: 3.6 mg/kg/injection, schedule: Q01DX009 (ip), vehicle: saline + alcohol",314 % of control
same,T/C,"dose: 5.4 mg/kg/injection, schedule: Q04DX003 (ip), vehicle: saline + alcohol",160 % of control and 219 % of control
same,T/C,"dose: 9.0 mg/kg/injection, schedule: Q04DX003 (ip), vehicle: saline + alcohol",160 % of control and 209 % of control and 99 % of control
same,T/C,"dose: 15.0 mg/kg/injection, schedule: Q04DX003 (ip), vehicle: saline + alcohol",104 % of control and 207 % of control
same,T/C,"dose: 288.0 micrograms/kg/injection, schedule: Q01DX009 (ip), vehicle: saline + alcohol",169 % of control
same,T/C,"dose: 480.0 micrograms/kg/injection, schedule: Q01DX009 (ip), vehicle: saline + alcohol",176 % of control
same,T/C,"dose: 800.0 micrograms/kg/injection, schedule: Q01DX009 (ip), vehicle: saline + alcohol",194 % of control
same,T/C,"dose: 864.0 micrograms/kg/injection, schedule: Q04DX003 (ip), vehicle: saline + alcohol",101 % of control
same,T/C,"dose: 2400.0 micrograms/kg/injection, schedule: Q04DX003 (ip), vehicle: saline + alcohol",167 % of control
same,T/C,"dose: 4000.0 micrograms/kg/injection, schedule: Q04DX003 (ip), vehicle: saline + alcohol",151 % of control and 194 % of control
COc1cc2oc3ccccc3c(=O)c2cc1CSc1ccccc1N,T/C,[5],123 % of control
same,T/C,[6],88 % of control
same,T/C,[7],90 % of control
